# Results as given in US20240366626A1, “OPHTHALMIC PREPARATION FOR MYOPIA SUPPRESSION” (TSUBOTA LABORATORY, INC., priority 2021, published 2024).
# “Also recorded” adds a separate entry of the source. Counter-ions that a name gives are not always drawn.
# Test system: mouse myopia model
# Experiment: Mouse myopia model (−30D lens on right eye, 0D on left), eye drops for three weeks; change in refractive index and axial length measured
# Assay type: in vivo, mice (C57BL6/J)
# Settings: for myopia suppressing effect (overall conclusion): mouse myopia model, eye drops for three weeks; for change in refractive index / change in axial length: −30D lens eyes vs OD lens eyes after three weeks of eye drops, bunazosin two drops once or twice per day, unoprostone two drops once per day; for change in refractive index: infrared photorefractor; for change in axial length: spectral domain OCT
# Experimental: The present inventors, with a focus on the fact that certain glaucoma ophthalmic preparations are effective in suppressing myopia progression, attempted to find myopia progression suppressing effects from existing glaucoma ophthalmic preparations. In the present application, glaucoma ophthalmic preparations were administered to a mouse myopia model, and an axial length and a refractive index were measured to evaluate whether the eye drops were effective in suppressing the progression of axial myopia.
# Eye drops were continuously administered for three weeks, with phosphate buffered saline (PBS) eye drops as the control group and bunazosin eye drops as the test group. Bunazosin is the main ingredient of a Detantol ophthalmic solution, and bunazosin eye drops were administered using Detantol 0.01% ophthalmic solution (manufactured by Santen Pharmaceutical Co. Ltd., 1 mL contains 0.1 mg of bunazosin hydrochloride). The number of eye drops was two drops once per day and twice a day (two drops each in the morning and evening). The refractive index and the axial length of the mouse eyeball after three weeks were measured and the amounts of change were calculated.
# The refractive values were measured by using an infrared photorefractor for mice (manufactured by Prof. Schaeffel, University of Tubingen). The axial lengths were measured by using spectral domain optical coherence tomography (Envisu R4310, manufactured by Leica).
# Mice similar to those in Experiment 1 were used to induce myopia. Eye drops were continually administered for three weeks, with PBS eye drops as the control group and unoprostone eye drops as the test group. Unoprostone is the main ingredient of a Rescula ophthalmic solution, and unoprostone eye drops were administered (two drops once per day, per eye) with Rescula ophthalmic solution 0.12% (Nitto Medic Co., Ltd., 1 mL contains 1.2 mg of isopropyl unoprostone). The refractive index and the axial length of the mouse eyeball after three weeks were measured and the amounts of change were calculated. The refractive index measurement and the axial length measurement were the same as in Experiment 1.
# [1] = two drops once per day vs twice a day, three weeks
Compound,myopia suppressing effect (overall conclusion),change in refractive index,change in axial length,myopia suppressing effect (overall conclusion) (hydrochloride),"comparison of dosing frequency (once vs twice per day), axial length [1]","comparison of dosing frequency (once vs twice per day), refractive index [1]"
"CCCCCCCC(=O)CC[C@@H]1[C@@H](C/C=C\CCCC(=O)OC(C)C)[C@@H](O)C[C@H]1O [unoprostone, isopropyl unoprostone]",did not exhibit a myopia suppressing effect; also recorded: does not exhibit a myopia suppressing effect,both eyes became myopic and no myopia suppressing effect of the eye drops was confirmed,no significant difference in the axial lengths of the two eyes was confirmed,–,–,–
"CCCC(=O)N1CCCN(c2nc(N)c3cc(OC)c(OC)cc3n2)CC1 [bunazosin, bunazosin hydrochloride]",–,no significant difference between the eyes with the −30D lenses and the eyes with OD lenses,substantially no difference in the axial lengths between the two eyes,exhibited a myopia-suppressing effect; also recorded: exhibits a myopia suppressing effect,no difference between one eye drop and two eye drops,one eye drop has a greater myopia suppressing effect than two eye drops
